Data from patent publication US20130064794A1, “Substituted Carbonyloxymethylphosphoramidate Compounds and Pharmaceutical Compositions for the Treatment of Viral Infections” (IDENIX PHARMACEUTICALS, INC., priority 2011, published 2013).

How the values were obtained:
[1] = system: Huh-7 cells; test: Release of active metabolite in Huh-7 cells; type: in vitro ADME; conditions: intracellular triphosphate, 10 μM test compound
Protocol: Huh-7 cells were plated in 1 mL culture medium (DMEM, containing glucose, L-glutamine and sodium pyruvate, 10% FBS, 100 IU/mL penicillin, 100 μg/mL streptomycin, 2 mM GlutaMAX, 1% MEM non-essential amino acids) at the concentration 0.8, 0.4 and 0.2 million cells per well on 6 well plates for 24, 48 and 72 hr treatment, respectively. Plated cells were incubated overnight at 37° C. in an incubator.
The following morning the test compound was diluted to 20 μM from a stock solution in DMSO in fresh culture medium pre-warmed to 37° C. and 1 mL of the solution/well was added to cells. A final medium volume per well was 2.0 mL, the test compound concentration in well was 10 μM and final DMSO concentration was 0.1%.
After 24, 48 or 72 hr, the medium was carefully removed and cell monolayers were washed twice with 2 mL ice-cold PBS per well. Following the last wash, all PBS was carefully removed and 1.0 mL of extraction solution (ice-cold 70% methanol) added. The plate was tightly covered with Parafilm, plastic plate cover and Parafilm again and an intracellular content was extracted at −20° C. for 24 hr.
After 24 hr extracts were transferred into polypropylene microfuge tubes and dry on a refrigerated centrivap concentrator. Dry residues were reconstituted in 250 μL of HPLC-grade water and centrifuged at 16,000×g for 10 min. […]

[2] = system: Zluc cells (Huh-7-derived cell line); test: Cytotoxicity evaluation, CellTiter-Blue Cell Viability Assay; type: cell-based; conditions: read-out: HCV Replicon CC50
Protocol: (§1) For cytotoxicity evaluation, Zluc cells were treated with compound as described above, and cell viability was monitored using the CellTiter-Blue Cell Viability Assay (Promega) by adding 20 μL of the assay solution to each well. The plates were then incubated at 37° C./5% CO2 for at least 3 hours.

[3] = Plasma and liver pharmacokinetics following a single oral dose in CD-1 mice; type: in vivo; conditions: single oral dose in PEG 200, value at 1 μmol/kg; for Ms 2′-F, 2′-MeGTP AUC: mouse liver; for Ms Plasma 2′-F, 2′-MeG AUC / Ms Plasma 2′-F, 2′-MeG Cmax: mouse plasma
Protocol: A single oral dose of Compound 1 at 25 mg/kg in PEG 200 (dose volume 5 mL/kg) was administered to nine CD-1 male mice. Five untreated animals were used for the collection of control plasma and liver. Terminal plasma and liver samples were collected from three animals per time point at 4, 12 and 24 hours post dose. Liver specimens were collected from all animals immediately after the incision. Freezing forceps stored in liquid nitrogen were used to freeze the liver before excision.
Plasma samples were analyzed for 2′-methylguanosine (2′-MeG) by LC-MS/MS. The internal standard (1S) was 2′-MeG-D3. For protein precipitation and extraction, each plasma sample (50 μL) was treated with 500 μL of 0.2% formic acid in acetonitrile and 20 μL of the internal standard working solution. After vortexing and centrifugation, 500 μL of the sample extracts were transferred to a new plate, dried under N2 at ˜28° C. and reconstituted with 75 μL of 0.2% FA in water. The extracts were chromatographed on an Aquasil C18 column using a gradient system of 0.2% formic acid in water and acetonitrile. The analytes were detected and quantified by tandem mass spectrometry in positive ion mode on an MDS Sciex API5000 equipped with a Turbo Ionspray® interface. The calibration range was 0.500 (LLOQ) to 200 ng/mL in mouse plasma. The corresponding range for molar units is 1.68 to 673 pmol/mL.
Liver samples were analyzed for the active species 2′-methylguanosine triphosphate (2′-MeGTP) by LC-MS/MS. 2′-F, 2′-MeGTP levels were assayed by homogenizing (on ice) a known weight of mouse liver with 4× volume of 0.95 M trichloroacetic acid (TCA). Internal standard solution was added to the homogenate followed by neutralization with 20% ammonium hydroxide solution and addition of 500 μL 1% formic acid. The tissue samples were extracted by weak anion exchange solid phase extraction (SPE). Post extraction, the eluates were evaporated under nitrogen, followed by reconstitution before injection onto the LC-MS/MS system. The samples were chromatographed on a Luna NH2 column using a gradient system of ammonium acetate (1 mM to 20 mM and pH 8.0 to pH 10.0) in water and acetonitrile (70:30). The analyte was detected and quantified by tandem mass spectrometry in positive ion mode on an API4000 equipped with a Turbo Ionspray® interface. The calibration range was 10 to 10000 pmol/mL in mouse liver homogenate (50 to 50000 pmol/g of mouse liver).

[4] = Cytotoxicity evaluation, CellTiter-Blue Cell Viability Assay; type: cell-based; conditions: human, Zluc cells (Huh-7-derived cell line), read-out: HCV Replicon CC50
Protocol: as §1

SMILES | Huh-7 TP Cmax [1] [pmol/mill cells] | CC50 [2] [µM] | Ms 2′-F, 2′-MeGTP AUC [3] [pmol · hr/g at 1 μmol/kg] | Ms Plasma 2′-F, 2′-MeG AUC [3] [pmol · hr/mL at 1 μmol/kg] | Ms Plasma 2′-F, 2′-MeG Cmax [3] [pmol/mL at 1 μmol/kg] | CC50 [4] [µM]
CCOC(=O)OC(C)OP(=O)(N[C@@H](C)C(=O)OC(C)C)OC[C@H]1O[C@@H](n2cnc3c(OC)nc(N)nc32)[C@](C)(F)[C@@H]1O (single isomer, unassigned) [Compound 15] | 198 | > 50 | 900 | 130 | 16 | 
CCOC(=O)OC(C)OP(=O)(N[C@@H](C)C(=O)OC(C)C)OC[C@H]1O[C@@H](n2cnc3c(OC)nc(N)nc32)[C@](C)(F)[C@@H]1O (single isomer, unassigned) [Compound 14] | 410 |  | 1900 | 150 | 14 | > 50
